This assay deals with T1, human kinase Mps-1 (Homo sapiens, UniProt P33981).
T1 construct: N-terminally GST-tagged human full length recombinant Mps-1 kinase; GST (N); purchased Invitrogen, Karslruhe, Germany PV4071
T1 sequence (P33981 1-857): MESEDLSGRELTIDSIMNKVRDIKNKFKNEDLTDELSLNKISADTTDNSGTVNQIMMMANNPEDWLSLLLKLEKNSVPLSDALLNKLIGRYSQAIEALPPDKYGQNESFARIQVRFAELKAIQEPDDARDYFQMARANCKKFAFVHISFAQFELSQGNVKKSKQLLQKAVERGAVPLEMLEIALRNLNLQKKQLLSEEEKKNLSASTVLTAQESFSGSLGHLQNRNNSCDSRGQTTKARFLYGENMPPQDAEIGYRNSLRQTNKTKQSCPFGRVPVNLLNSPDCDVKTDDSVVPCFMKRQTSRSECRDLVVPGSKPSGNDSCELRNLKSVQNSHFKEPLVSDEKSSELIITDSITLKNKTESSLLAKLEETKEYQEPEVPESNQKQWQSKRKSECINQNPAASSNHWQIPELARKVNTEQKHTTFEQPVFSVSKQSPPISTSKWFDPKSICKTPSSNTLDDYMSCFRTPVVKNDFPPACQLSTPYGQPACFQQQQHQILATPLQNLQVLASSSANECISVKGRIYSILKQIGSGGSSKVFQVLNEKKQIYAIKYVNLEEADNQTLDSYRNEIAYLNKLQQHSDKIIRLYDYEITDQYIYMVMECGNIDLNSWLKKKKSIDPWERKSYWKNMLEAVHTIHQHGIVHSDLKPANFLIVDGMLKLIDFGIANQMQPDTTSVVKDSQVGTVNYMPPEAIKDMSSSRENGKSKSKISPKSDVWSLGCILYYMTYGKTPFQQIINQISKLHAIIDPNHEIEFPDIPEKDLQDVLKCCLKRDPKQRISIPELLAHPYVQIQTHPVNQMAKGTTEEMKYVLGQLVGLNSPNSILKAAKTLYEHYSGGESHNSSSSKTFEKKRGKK
The assay can be described thus: Mps-1 kinase assay (TR-FRET). To be noted: Mps-1 TR-FRET kinase assay; avg; read-out: Mps1 avg (IC50 [mol/l]). It is filed as biochemical. Put shortly:
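GST-tagged full-length recombinant human Mps-1 (~0.5 nM) pre-incubated 15 min with compound, then reacted 60 min at 22 °C with 10 μM ATP and 1 μM biotinylated peptide in Hepes pH 7.7 buffer. EDTA-stopped; TR-FRET (Eu anti-phospho-Ser/Thr to SA-XLent) 665/620 nm ratio normalised to no-inhibitor and no-enzyme controls.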
On the technique in general: TR-FRET usually uses a lanthanide donor and a delayed reading to cut background.

pIC50: −log10 of the molar value. Several values for one entry are separate records, joined by “and”; a condition that tells them apart may be missing. Equal values may be shown once. A value given as a limit tells only on which side of the number the result lay.

On to `Cc1nsc(Nc2cnc(C(F)(F)F)cn2)c1C(=O)Nc1ccc(F)c(OCC2CCN(CCF)C2)c1` (stereo not drawn) [Example 317, N-(4-fluoro-3-{[1-(2-fluoroethyl)pyrrolidin-3-yl]methoxy}phenyl)-3-methyl-5-{[5-(trifluoromethyl)pyrazin-2-yl]amino}-1,2-thiazole-4-carboxamide], for which the pIC50 is < 4.70.

As to `Cc1nsc(Nc2cnc(C(F)(F)F)cn2)c1C(=O)Nc1ccc(OCCCO)nc1` [Example 279, N-[6-(3-hydroxypropoxy)pyridin-3-yl]-3-methyl-5-{[5-(trifluoromethyl)pyrazin-2-yl]amino}-1,2-thiazole-4-carboxamide], the pIC50 was < 4.70.

In the case of `Cc1nsc(Nc2cc(C#N)ccn2)c1C(=O)Nc1ccc(OC2CCN(C(=O)OC(C)(C)C)CC2)nc1` [Example 23, tert-Butyl 4-({5-[({5-[(4-cyanopyridin-2-yl)amino]-3-methyl-1,2-thiazol-4-yl}-carbonyl)amino]pyridin-2-yl}oxy)piperidine-1-carboxylate], the pIC50 was 4.77.

With `Cc1nsc(Nc2cnc(C(F)(F)F)cn2)c1C(=O)Nc1ccc(C(=O)NC2CN(CC(F)F)C2)cc1` [Example 271, N-(4-{[1-(2,2-difluoroethyl)azetidin-3-yl]carbamoyl}phenyl)-3-methyl-5-{[5-(trifluoromethyl)pyrazin-2-yl]amino}-1,2-thiazole-4-carboxamide], the pIC50 is < 4.70.

As to `Cc1nsc(Nc2cnc(C(F)(F)F)cn2)c1C(=O)Nc1ccc(F)c(OCCCN(C)CCC(F)(F)F)c1` [Example 303, N-(4-fluoro-3-{3-[methyl(3,3,3-trifluoropropyl)amino]propoxy}phenyl)-3-methyl-5-{[5-(trifluoromethyl)pyrazin-2-yl]amino}-1,2-thiazole-4-carboxamide], the pIC50 is ≤ 4.70.

With `Cc1nsc(Nc2cnc(C(F)(F)F)cn2)c1C(=O)Nc1ccc(F)c(OCCCN(C)CC(F)(F)F)c1` [Example 302, N-(4-fluoro-3-{3-[methyl(2,2,2-trifluoroethyl)amino]propoxy}phenyl)-3-methyl-5-{[5-(trifluoromethyl)pyrazin-2-yl]amino}-1,2-thiazole-4-carboxamide], the pIC50 was < 4.70.

Take `Cc1nsc(Nc2ccc(C#N)cn2)c1C(=O)Nc1cccc(C(=O)NC(C)C)c1` [Example 255, 5-[(5-cyanopyridin-2-yl)amino]-N-[3-(isopropylcarbamoyl)phenyl]-3-methyl-1,2-thiazole-4-carboxamide]: the pIC50 was < 4.70.

As to `Cc1nsc(Nc2cnc(C(F)(F)F)cn2)c1C(=O)Nc1ccc(C(=O)N2CCN(C)CC2)cc1` [Example 262, 3-methyl-N-{4-[(4-methylpiperazin-1 yl)carbonyl]phenyl}-5-{[5-(trifluoromethyl)pyrazin-2-yl]amino}-1,2-thiazole-4-carboxamide], the pIC50 was < 4.70.

As to `Cc1nsc(Nc2cnc(C(F)(F)F)cn2)c1C(=O)Nc1ccc(OCCCNCC(F)F)nc1` [Example 293, N-(6-{3-[(2,2-difluoroethyl)amino]propoxy}pyridin-3-yl)-3-methyl-5-{[5-(trifluoromethyl)pyrazin-2-yl]amino}-1,2-thiazole-4-carboxamide], the pIC50 was < 4.70.

Turning to `Cc1nsc(Nc2cnc(C(F)(F)F)cn2)c1C(=O)Nc1ccc(F)c(OCCCNCC(F)(F)F)c1` [Example 306, N-(4-fluoro-3-{3-[(2,2,2-trifluoroethyl)amino]propoxy}phenyl)-3-methyl-5-{[5-(trifluoromethyl)pyrazin-2-yl]amino}-1,2-thiazole-4-carboxamide], the pIC50 was ≤ 4.70.

Consider `Cc1nsc(Nc2cc(C#N)ccn2)c1C(=O)Nc1cccc(C(=O)NC(C)C)c1` [Example 254, 5-[(4-cyanopyridin-2-yl)amino]-N-[3-(isopropylcarbamoyl)phenyl]-3-methyl-1,2-thiazole-4-carboxamide], for which the pIC50 is < 4.70.

For the compound `Cc1nsc(Nc2cnc(C(F)(F)F)cn2)c1C(=O)Nc1ccc(F)c(OCC2CCN(C(CF)CF)C2)c1` (stereo not drawn) [Example 320, N-(3-{[1-(1,3-difluoropropan-2-yl)pyrrolidin-3-yl]methoxy}-4-fluorophenyl)-3-methyl-5-{[5-(trifluoromethyl)pyrazin-2-yl]amino}-1,2-thiazole-4-carboxamide], the pIC50 was ≤ 4.70.

On to `CCNC(=O)c1cccc(NC(=O)c2c(C)nsc2Nc2cnc3ccccc3n2)c1` [Example 251, N-[3-(ethylcarbamoyl)phenyl]-3-methyl-5-(quinoxalin-2-ylamino)-1,2-thiazole-4-carboxamide], for which the pIC50 was < 4.70.

In the case of `Cc1nsc(Nc2cncc(C(F)(F)F)n2)c1C(=O)Nc1ccc(F)c(OC2CCN(CC(F)(F)F)CC2)c1` [Example 267, N-(4-fluoro-3-{[1-(2,2,2-trifluoroethyl)piperidin-4-yl]oxy}phenyl)-3-methyl-5-{[6-(trifluoromethyl)pyrazin-2-yl]amino}-1,2-thiazole-4-carboxamide], the pIC50 was < 4.70.

`CC(=O)N1CCC(Oc2ccc(NC(=O)c3c(C)nsc3Nc3cnc4ccccc4n3)cn2)CC1` [Example 22, N-{6-[(1-acetylpiperidin-4-yl)oxy]pyridin-3-yl}-3-methyl-5-(quinoxalin-2-ylamino)-1,2-thiazole-4-carboxamide]: the pIC50 was ≤ 4.70.

`Cc1nsc(Nc2cnc(C(F)(F)F)cn2)c1C(=O)Nc1ccc(OC2CCN(C(CF)CF)C2)nc1` (stereo not drawn) [Example 313, N-(6-{[1-(1,3-difluoropropan-2-yl)pyrrolidin-3-yl]oxy}pyridin-3-yl)-3-methyl-5-{[5-(trifluoromethyl)pyrazin-2-yl]amino}-1,2-thiazole-4-carboxamide]: the pIC50 is ≤ 4.70.

Regarding `Cc1nsc(Nc2cnc3ccccc3n2)c1C(=O)Nc1ccc(N2CCN(C(=O)OC(C)(C)C)CC2)nc1` [Example 248, tert-butyl 4-[5-({[3-methyl-5-(quinoxalin-2-ylamino)-1,2-thiazol-4-yl]carbonyl}amino)pyridin-2-yl]piperazine-1-carboxylate], the pIC50 was < 4.70.

`Cc1nsc(Nc2cnc3ccccc3n2)c1C(=O)Nc1cccc(NS(=O)(=O)C2CCN(C(=O)OC(C)(C)C)CC2)c1` [Example 258, tert-butyl 4-{[3-({[3-methyl-5-(quinoxalin-2-ylamino)-1,2-thiazol-4-yl]carbonyl}amino)phenyl]sulfamoyl} piperidine-1-carboxylate]: the pIC50 is < 4.70.

For the compound `Cc1nsc(Nc2cncc(C(F)(F)F)n2)c1C(=O)Nc1ccc(C(=O)NC2CN(CC(F)(F)F)C2)cc1` [Example 280, 3-methyl-N-(4-{[1-(2,2,2-trifluoroethyl)azetidin-3-yl]carbamoyl}phenyl)-5-{[6-(trifluoromethyl)pyrazin-2-yl]amino}-1,2-thiazole-4-carboxamide], the pIC50 is < 4.70 and 4.96.

As to `Cc1nsc(Nc2cncc(C(F)(F)F)n2)c1C(=O)Nc1ccc(OCCO)nc1` [Example 276, N-[6-(2-hydroxyethoxy)pyridin-3-yl]-3-methyl-5-{[6-(trifluoromethyl)pyrazin-2-yl]amino}-1,2-thiazole-4-carboxamide], the pIC50 is < 4.70.

On to `Cc1nsc(Nc2cnc3ccccc3n2)c1C(=O)Nc1cccc(NS(=O)(=O)C2CN(CC(F)F)C2)c1` [Example 286, N-[3-({[1-(2,2-difluoroethyl)azetidin-3-yl]sulfonyl}amino)phenyl]-3-methyl-5-(quinoxalin-2-ylamino)-1,2-thiazole-4-carboxamide], for which the pIC50 is 4.85.

`Cc1nsc(Nc2cnc3ccccc3n2)c1C(=O)Nc1cccc(NS(=O)(=O)C2CCN(CC(F)F)CC2)c1` [Example 282, N-[3-({[1-(2,2-difluoroethyl)piperidin-4-yl]sulfonyl}amino)phenyl]-3-methyl-5-(quinoxalin-2-ylamino)-1,2-thiazole-4-carboxamide]: the pIC50 is < 4.70.

On to `Cc1nsc(Nc2cnc(C(F)(F)F)cn2)c1C(=O)Nc1ccc(C(=O)N2CCN(CC(F)(F)F)CC2)cc1` [Example 260, 3-methyl-N-(4-{[4-(2,2,2-trifluoroethyl)piperazin-1-yl]carbonyl}phenyl)-5-{[5-(trifluoromethyl)pyrazin-2-yl]amino}-1,2-thiazole-4-carboxamide], for which the pIC50 was < 4.70.

With `Cc1nsc(Nc2cnc(C(F)(F)F)cn2)c1C(=O)Nc1ccc(F)c(OC2CCN(CC(F)(F)F)CC2)c1` [Example 264, N-(4-fluoro-3-{[1-(2,2,2-trifluoroethyl)piperidin-4-yl]oxy}phenyl)-3-methyl-5-{[5-(trifluoromethyl)pyrazin-2-yl]amino}-1,2-thiazole-4-carboxamide], the pIC50 was < 4.70.

The values above are taken from US20170334899A1, “AMINO-SUBSTITUTED ISOTHIAZOLES” (Bayer Pharma Aktiengesellschaft, priority 2014, published 2017).
